{"source": "patent US20260265199A1", "about": "“CRYSTALLINE FORMS OF (R)-2-AMINO-5-(4-(2-(3,5-DIFLUOROPHENYL)-2-HYDROXYACETAMIDO)-2-METHYLPHENYL)-N-ISOPROPYLNICOTINAMIDE AND METHODS FOR USING THE SAME” (HIBERCELL, INC., priority 2023, published 2026)", "experiment": "Phase 1a study: pharmacokinetics after oral BID dosing in subjects with advanced solid tumors", "assay_type": "in vivo, human", "settings": "for Tmax / Cmax / half-life / AUC(0-t) / Vd/F / AUC(0-inf) / AUC: human, in vivo; for Vd/F: read-out: Vz/F; for AUC: read-out: AUC0-τ", "protocol": "This example describes a first in human, Phase 1a, multi-center, open-label study to establish the maximum tolerated dose (MTD) and evaluate the safety and tolerability of oral dosing of Form A of the hemi-fumarate salt of the compound of formula (I) (Example 11) in a dose-escalating fashion. Form A of the hemi-fumarate salt was orally administered BID every day with food or within 30 minutes of completing a meal, starting at 25 mg, with doses escalating to 50, 100, 200, 400, 600, and 900 mg BID as safety allows for each 3-week treatment cycle.\nUp to 36 qualified subjects at 3 to 5 US sites, who have specific tumor types of renal cell carcinoma (RCC), gastric cancer (GC), metastatic breast cancer (MBC), small cell lung cancer (SCLC), and other solid tumors (e.g., non-small cell lung cancer, colorectal cancer, carcinoma of unknown primary) with the exception of rapidly progressing neoplasms (e.g., pancreatic cancer, glioblastoma, hepatocellular carcinoma) received Form A of the hemi-fumarate salt. Every effort was made to ensure approximately 50% of all subjects enrolled were subjects with RCC and GC. The starting dose level was 25 mg twice daily (BID), escalating to 50, 100, and 200 mg BID as safety allows, following the Bayesian Optimal Interval (BOIN) design. The safety monitoring committee (SMC) evaluated the dose-limiting toxicities (DLTs) and cumulative safety and PK data at the end of each cohort. Based on the SMC recommendations after a comprehensive review of PK and safety data for 200 mg BID dose, higher dose levels were evaluated, starting with 400 mg BID. The dose escalated to 600 mg and then 900 mg following the BOIN design starting with 1 subject at each escalated dose, until the MTD was reached or the sponsor or SMC declares the dose most appropriate for clinical development. This Phase 1a will be expanded into a Phase 1b/2a study through a protocol amendment and will then assess the dose and tumor type(s) selected in Phase 1a as the most appropriate for further clinical development. Subjects were dosed until unacceptable toxicity, disease progression per immune-related Response Evaluation Criteria in Solid Tumors (iRECIST), subject withdrawal, any other administrative reasons, or after 2 years of treatment, whichever occurs first. Efficacy was assessed via Response Evaluation Criteria in Solid Tumors 1.1 (RECIST 1.1); computed tomography (CT) scans were conducted every 6 weeks. Safety, including occurrence of dose-limiting toxicities (DLTs), pharmacokinetics (PK), and biomarker parameters were also assessed.\nForm A of the hemi-fumarate salt was orally administered BID with food or within 30 minutes of completing a meal, starting at 25 mg, with doses escalating to 50, 100, 200, 400, 600 and 900 mg BID as safety allowed. Up to 24 subjects were enrolled to ensure 12 subjects completed the study at the estimated MTD of Form A of the hemi-fumarate salt. Dosing occurred in 3-week cycles. Subjects spent Cycle 1/Day 1 (C1D1) in the clinic followed by an overnight stay for safety monitoring and PK sampling. Subjects were hospitalized for administration of first 3 doses: CID1 am and pm doses, and Cycle 1/Day 2 (C1D2) am dose; on Days 8, 15, and 21 the am dose was taken in the clinic after the planned PK samples. All other doses were self administered at home.\nResults of Cohorts 1 to 6 the study are detailed in Tables 47-50 below.", "key": {"[1]": {"settings": "po, 300 mg, 300 mg single oral dose, Cycle 1 Day 1, geometric mean, N = 4"}, "[2]": {"settings": "po, 300 mg, 300 mg twice daily oral, Cycle 1 Day 21, point estimate, N = 1"}, "[3]": {"settings": "po, 400 mg, 400 mg single oral dose, Cycle 1 Day 1, geometric mean, N = 3"}, "[4]": {"settings": "po, 600 mg, 600 mg single oral dose, Cycle 1 Day 1, point estimate, N = 1"}, "[5]": {"settings": "po, 600 mg, 600 mg twice daily oral, Cycle 1 Day 21, point estimate, N = 1"}}, "note": "Where a name gives a salt, the structure may show the parent alone. Read-outs that look alike come from different tables or passages of the source."}
{"compound": "Cc1cc(NC(=O)[C@H](O)c2cc(F)cc(F)c2)ccc1-c1cnc(N)c(C(=O)NC(C)C)c1", "note": "[Form A of the hemi-fumarate salt, (R)-2-amino-5-(4-(2-(3,5-difluorophenyl)-2-hydroxyacetamido)-2-methylphenyl)-N-isopropylnicotinamide]", "values": [{"measurement": "Tmax", "setting": "po, 200 mg, 200 mg twice daily oral, Cycle 1 Day 21, median, N = 4", "result": 5, "unit": "h"}, {"measurement": "Cmax", "setting": "[1]", "result": 1140, "unit": "ng/mL"}, {"measurement": "half-life", "setting": "po, 300 mg, 300 mg single oral dose, Cycle 1 Day 1, geometric mean, N = 4, interpret with caution, terminal elimination phase not well captured, read-out: t1/2 (converted)", "result": 6.88, "unit": "h"}, {"measurement": "AUC(0-t)", "setting": "po, 300 mg, 300 mg single oral dose, Cycle 1 Day 1, geometric mean, N = 4, read-out: AUC0-12", "result": 8610, "unit": "ng·h/mL"}, {"measurement": "AUC(0-t)", "setting": "po, 300 mg, 300 mg single oral dose, Cycle 1 Day 1, geometric mean, N = 4, read-out: AUC0-last", "result": 8610, "unit": "ng·h/mL"}, {"measurement": "Vd/F", "setting": "[1]", "result": 619, "unit": "L"}, {"measurement": "Tmax", "setting": "po, 300 mg, 300 mg single oral dose, Cycle 1 Day 1, median, N = 4", "result": 7, "unit": "h"}, {"measurement": "Cmax", "setting": "[2]", "result": 3030, "unit": "ng/mL"}, {"measurement": "Tmax", "setting": "[2]", "result": 8, "unit": "h"}, {"measurement": "AUC(0-t)", "setting": "po, 300 mg, 300 mg twice daily oral, Cycle 1 Day 21, point estimate, N = 1, read-out: AUC0-last", "result": 28400, "unit": "ng·h/mL"}, {"measurement": "Cmax", "setting": "[3]", "result": 649, "unit": "ng/mL"}, {"measurement": "half-life", "setting": "po, 400 mg, 400 mg single oral dose, Cycle 1 Day 1, geometric mean, N = 3, interpret with caution, terminal elimination phase not well captured, read-out: t1/2 (converted)", "result": 6.79, "unit": "h"}, {"measurement": "AUC(0-t)", "setting": "po, 400 mg, 400 mg single oral dose, Cycle 1 Day 1, geometric mean, N = 3, read-out: AUC0-12", "result": 3830, "unit": "ng·h/mL"}, {"measurement": "AUC(0-t)", "setting": "po, 400 mg, 400 mg single oral dose, Cycle 1 Day 1, geometric mean, N = 3, read-out: AUC0-last", "result": 3830, "unit": "ng·h/mL"}, {"measurement": "Vd/F", "setting": "[3]", "result": 240, "unit": "L"}, {"measurement": "Tmax", "setting": "po, 400 mg, 400 mg single oral dose, Cycle 1 Day 1, median, N = 3", "result": 2, "unit": "h"}, {"measurement": "half-life", "setting": "po, 400 mg, 400 mg twice daily oral, Cycle 1 Day 21, N = 2, interpret with caution, terminal elimination phase not well captured, read-out: t1/2 (converted)", "result": 10.8, "unit": "h"}, {"measurement": "Vd/F", "setting": "po, 400 mg, 400 mg twice daily oral, Cycle 1 Day 21, N = 2", "result": 122, "unit": "L"}, {"measurement": "Cmax", "setting": "po, 400 mg, 400 mg twice daily oral, Cycle 1 Day 21, geometric mean, N = 2", "result": 3680, "unit": "ng/mL"}, {"measurement": "AUC(0-t)", "setting": "po, 400 mg, 400 mg twice daily oral, Cycle 1 Day 21, geometric mean, N = 2, read-out: AUC0-last", "result": 30800, "unit": "ng·h/mL"}, {"measurement": "half-life", "setting": "po, 400 mg, 400 mg twice daily oral, Cycle 1 Day 21, geometric mean, N = 2, read-out: t1/2, eff (converted)", "result": 38.5, "unit": "h"}, {"measurement": "Tmax", "setting": "po, 400 mg, 400 mg twice daily oral, Cycle 1 Day 21, median, N = 2", "result": 2.5, "unit": "h"}, {"measurement": "Cmax", "setting": "[4]", "result": 1460, "unit": "ng/mL"}, {"measurement": "Tmax", "setting": "[4]", "result": 2, "unit": "h"}, {"measurement": "AUC(0-t)", "setting": "po, 600 mg, 600 mg single oral dose, Cycle 1 Day 1, point estimate, N = 1, read-out: AUC0-12", "result": 11600, "unit": "ng·h/mL"}, {"measurement": "AUC(0-t)", "setting": "po, 600 mg, 600 mg single oral dose, Cycle 1 Day 1, point estimate, N = 1, read-out: AUC0-last", "result": 11600, "unit": "ng·h/mL"}, {"measurement": "Cmax", "setting": "[5]", "result": 5990, "unit": "ng/mL"}, {"measurement": "Tmax", "setting": "[5]", "result": 12, "unit": "h"}, {"measurement": "AUC(0-t)", "setting": "po, 600 mg, 600 mg twice daily oral, Cycle 1 Day 21, point estimate, N = 1, read-out: AUC0-last", "result": 60800, "unit": "ng·h/mL"}, {"measurement": "half-life", "setting": "po, 600 mg, 600 mg twice daily oral, Cycle 1 Day 21, point estimate, N = 1, read-out: t1/2, eff (converted)", "result": 39.1, "unit": "h"}, {"measurement": "AUC(0-inf)", "setting": "25 mg single oral dose, Cycle 1 Day 1, geometric mean, N = 3", "result": 2200, "unit": "ng·h/mL"}, {"measurement": "AUC", "setting": "25 mg twice daily oral, Cycle 1 Day 21, geometric mean, N = 3", "result": 4110, "unit": "ng·h/mL"}, {"measurement": "AUC(0-inf)", "setting": "50 mg single oral dose, Cycle 1 Day 1, geometric mean, N = 3", "result": 5650, "unit": "ng·h/mL"}, {"measurement": "AUC", "setting": "50 mg twice daily oral, Cycle 1 Day 21, geometric mean, N = 3", "result": 9070, "unit": "ng·h/mL"}, {"measurement": "AUC", "setting": "100 mg twice daily oral, Cycle 1 Day 21, geometric mean, N = 3", "result": 11700, "unit": "ng·h/mL"}, {"measurement": "AUC(0-inf)", "setting": "200 mg single oral dose, Cycle 1 Day 1, geometric mean, N = 5", "result": 18000, "unit": "ng·h/mL"}, {"measurement": "AUC", "setting": "200 mg twice daily oral, Cycle 1 Day 21, geometric mean, N = 4", "result": 27200, "unit": "ng·h/mL"}, {"measurement": "AUC(0-inf)", "setting": "300 mg single oral dose, Cycle 1 Day 1, geometric mean, N = 4", "result": 4810, "unit": "ng·h/mL"}, {"measurement": "AUC", "setting": "300 mg twice daily oral, Cycle 1 Day 21, point estimate, N = 1", "result": 28400, "unit": "ng·h/mL"}, {"measurement": "half-life", "setting": "300 mg twice daily oral, Cycle 1 Day 21, point estimate, N = 1, read-out: t1/2, eff (converted)", "result": 19.4, "unit": "h"}, {"measurement": "AUC(0-inf)", "setting": "400 mg single oral dose, Cycle 1 Day 1, geometric mean, N = 3", "result": 16300, "unit": "ng·h/mL"}, {"measurement": "AUC", "setting": "400 mg twice daily oral, Cycle 1 Day 21, geometric mean, N = 2", "result": 51200, "unit": "ng·h/mL"}, {"measurement": "AUC", "setting": "600 mg twice daily oral, Cycle 1 Day 21, point estimate, N = 1", "result": 60800, "unit": "ng·h/mL"}, {"measurement": "Exposure versus dose", "setting": "oral BID with food, 25 mg to 600 mg dose range, subjects with advanced solid tumors", "result": "increased roughly proportional to the increase in dose"}, {"measurement": "Time to steady-state", "setting": "oral BID, based on similar trough concentrations on Cycle 1, Days 8, 15 and 21", "result": "achieved by Cycle 1, Day 8"}]}
